# Read-outs that look alike come from different tables or passages of the source.
# Assays:
# estrogen receptor = details: cited from earlier work
# [1] = target: T1, aryl hydrocarbon receptor (AhR) (Rattus norvegicus, UniProt P41738); details: cited from earlier work; for Experimental Log EC50: rodent hepatic cytosol
# T1 construct: rodent hepatic cytosol as a source of the AhR; from tissue; host or cells: rodent hepatic cytosol
# T1 sequence (P41738 10-853): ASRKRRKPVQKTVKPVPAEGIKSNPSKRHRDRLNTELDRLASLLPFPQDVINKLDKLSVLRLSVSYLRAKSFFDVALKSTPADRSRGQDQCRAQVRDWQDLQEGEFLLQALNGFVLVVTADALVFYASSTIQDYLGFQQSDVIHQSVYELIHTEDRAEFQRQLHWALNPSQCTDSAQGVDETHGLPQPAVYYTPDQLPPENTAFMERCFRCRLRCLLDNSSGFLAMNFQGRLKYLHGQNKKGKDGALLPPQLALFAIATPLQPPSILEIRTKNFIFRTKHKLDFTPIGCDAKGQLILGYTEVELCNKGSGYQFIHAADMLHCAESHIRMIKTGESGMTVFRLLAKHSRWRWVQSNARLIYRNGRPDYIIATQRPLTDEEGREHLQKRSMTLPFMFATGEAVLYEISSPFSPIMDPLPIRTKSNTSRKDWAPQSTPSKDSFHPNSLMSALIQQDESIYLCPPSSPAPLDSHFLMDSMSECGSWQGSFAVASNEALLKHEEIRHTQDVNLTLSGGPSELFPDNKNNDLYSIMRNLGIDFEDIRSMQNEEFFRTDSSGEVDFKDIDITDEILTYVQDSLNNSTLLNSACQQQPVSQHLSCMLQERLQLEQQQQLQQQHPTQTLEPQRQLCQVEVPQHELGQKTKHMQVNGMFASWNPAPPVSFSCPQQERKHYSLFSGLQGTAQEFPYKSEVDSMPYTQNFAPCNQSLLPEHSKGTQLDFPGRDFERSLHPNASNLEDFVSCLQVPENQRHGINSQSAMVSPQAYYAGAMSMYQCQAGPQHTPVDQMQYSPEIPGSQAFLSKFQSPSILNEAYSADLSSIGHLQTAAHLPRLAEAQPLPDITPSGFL
# [2] = Minimum inhibitory concentration of cephalosporin antibiotics; type: cell-based; design: unit not given here
# Source text: This example describes the application of the disclosed CoSCoSA methods to model the minimum inhibitory concentration of cephalosporin antibotics, using only the through-bond (COSY-type) connections between carbons and between carbons and nitrogens in their structures. Bin sizes of 3 ppm by 3 ppm for carbon to carbon bins were used, and 10 ppm by 3 ppm for the nitrogen to carbon bins. […] The structures of the cephalosporins used in the model are shown below.
# [3] = design: unit not given here; details: Minimal Inhibitory Concentration; cited from earlier work
# [4] = experimental values of Waller et al. and Kuiper et al. external test sets, normalized to NCTR data
# [5] = log scale, competitive binding, [3H]-2,3,7,8-tetrachlorodioxin, previously reported training data
# [6] = previously reported competitive in vitro AhR binding, [3H]-2,3,7,8-tetrachlorodioxin radioligand, values are log EC50
Structure (SMILES),Normalized log (RBA) (estrogen receptor; [4]),"Experimental Log EC50 [1, 5]","Experimental Log EC50 [1, 6]",also measured
"Clc1ccc(Cl)c(-c2cc(Cl)ccc2Cl)c1 [2,2′5,5′-tetraCl-biphenyl]",−2.67,,,
"Oc1c(Cl)cc(Cl)c(Cl)c1-c1cc(Cl)cc(Cl)c1Cl [2,2′,3,3′,5,5′-heaxCl-6′-biphenylol]",−2.69,,,
"Oc1cc(Cl)c(-c2c(Cl)ccc(Cl)c2Cl)c(Cl)c1Cl [2,2′,3,3′,6,6′-hexaCl-4-biphenylol]",−2.74,,,
"Oc1cc(Cl)c(-c2c(Cl)cc(Cl)cc2Cl)c(Cl)c1Cl [2,2′,3,4′,6,6′-hexaCl-4-biphenylol]",−2.60,,,
"Oc1cc(Cl)c(-c2c(Cl)cccc2Cl)c(Cl)c1Cl [2,2′,3,6,6′-pentaCl-4-biphenylol]",−1.97,,,
"Clc1cc(Cl)c(-c2cc(Cl)c(Cl)cc2Cl)cc1Cl [2,2′,4,4′,5,5′-hexaCl-biphenyl]",−2.83,−5.10,−5.10,
"Clc1cc(Cl)c(-c2c(Cl)cc(Cl)cc2Cl)c(Cl)c1 [2,2′,4,4′,6,6′-hexaCl-biphenyl]",−1.87,,,
"Clc1ccc(-c2ccc(Cl)c(Cl)c2Cl)cc1Cl [2,3,3′,4,4′-pentaCl-biphenyl]",,−6.15,−6.15,
"Clc1ccc(-c2cc(Cl)c(Cl)c(Cl)c2Cl)cc1 [2,3,4,4′,5-pentaCl-biphenyl]",,−6.38,−6.38,
"Clc1ccc(-c2ccc(Cl)c(Cl)c2Cl)cc1 [2,3,4,4′-tetraCl-biphenyl]",,−5.55,−5.55,
"Clc1cc(-c2ccccc2)c(Cl)c(Cl)c1Cl [2,3,4,5-tetraCl-biphenyl]",,−4.85,−4.85,
"Clc1cc2c(oc3c(Cl)c(Cl)c(Cl)cc32)c(Cl)c1Cl [2,3,4,6,7,8-hexaCl-dibenzofuran]",,−8.33,−8.33,
"Clc1cc2c(oc3c(Cl)cccc32)c(Cl)c1Cl [2,3,4,6-tetraCl-dibenzofuran]",,−7.46,−7.46,
"Clc1cc2oc3c(Cl)c(Cl)c(Cl)cc3c2cc1Cl [2,3,4,7,8-pentaCl-dibenzofuran]",,−8.82,−8.82,
"Clc1cc(Cl)c2c(c1)oc1c(Cl)c(Cl)c(Cl)cc12 [2,3,4,7,9-pentaCl-dibenzofuran]",,−7.70,−7.70,
"Oc1ccc(-c2c(Cl)c(Cl)c(O)c(Cl)c2Cl)cc1 [2,3,5,6,tetraCl-4,4′-biphenyldiol]",−2.18,,,
"Clc1cc2c(cc1Cl)Oc1c(ccc(Cl)c1Cl)O2 [2,3,6,7-tetraCl-dibenzodioxin]",,−7.79,−7.79,
"Clc1cc(Cl)c2oc3cc(Cl)c(Cl)cc3c2c1 [2,3,6,8-tetraCldibenzofuran]",,−7.66,−7.66,
"Clc1cc2c(cc1Cl)Oc1c(Cl)cccc1O2 [2,3,6-triCl-dibenzodioxin]",,−7.66,−7.66,
"Clc1cc2c(cc1Cl)Oc1cc(Cl)c(Cl)cc1O2 [2,3,7,8-tetraCl-dibenzodioxin]",,−9.00,−9.00,binding to the AhR (in words) [1]: strong binder
"Clc1cc2oc3cc(Cl)c(Cl)cc3c2cc1Cl [2,3,7,8-tetraCl-dibenzofuran]",,−8.60,−8.60,binding to the AhR (in words) [1]: strong binder
"Clc1ccc2c(c1)Oc1cc(Cl)c(Cl)cc1O2 [2,3,7-triCl-dibenzodioxin]",,−8.15,−8.15,
"Clc1cc(Cl)c(-c2cc(Cl)c(Cl)c(Cl)c2)cc1Cl [2,3′,4,4′,5,5′-hexaCl-biphenyl]",,−5.80,−5.80,

Structure (SMILES),Normalized log (RBA) (estrogen receptor; [4]),"Experimental Log EC50 [1, 5]","Experimental Log EC50 [1, 6]",also measured
"Clc1ccc(-c2cc(Cl)c(Cl)cc2Cl)cc1Cl [2,3′,4,4′,5-pentaCl-biphenyl]",,−6.04,−6.04,
"Oc1ccc(-c2c(Cl)cc(Cl)cc2Cl)cc1 [2,4,6,-triCl-4′-biphenylol]",−0.16,,,
"Oc1ccc(-c2c(Cl)cccc2Cl)cc1 [2,6-dichloro-4′-biphenylol]",−1.11,,,
"Clc1ccc2c(c1)Oc1cc(Cl)ccc1O2 [2,8-diCl-dibenzodioxin]",,−6.49,−6.49,
"Oc1ccc(-c2ccc(O)cc2Cl)cc1 [2-Cl-4,4′-biphenyldiol]",−0.61,,,
"Clc1ccc(-c2ccc(Cl)c(Cl)c2Cl)cc1Cl [2′,3′4,4′,5-pentaCl-biphenyl]",,−5.85,−5.85,
"Clc1ccc(-c2cc(Cl)c(Cl)c(Cl)c2)cc1Cl [3,3′,4,4′,5-pentaCl-biphenyl]",,−7.92,−7.92,
"Clc1ccc(-c2ccc(Cl)c(Cl)c2)cc1Cl [3,3′,4,4′-tetraCl-biphenyl]",,−7.37,−7.37,
CC(C)(C)c1cccc(O)c1 [3-tert-butylphenol],−4.82,,,
C[C@]12CC[C@H]3[C@@H](CC=C4C[C@@H](O)CC[C@@]43C)[C@@H]1CC[C@@H]2O [5-Androstenediol],,,,Normalized log (RBA) (estrogen receptor): −0.49
C[C@]12CC[C@@H]3c4ccc(O)cc4CC[C@H]3[C@@H]1CC(=O)[C@@H]2O [16-ketoestradiol],,,,Normalized log (RBA) (estrogen receptor): −0.38
CC12CCC3c4ccc(O)cc4CCC3C1CC(Br)C2O (stereo not shown) [16a-bromoestradiol],1.41,,,
N[C@@H](C(=O)N[C@@H]1C(=O)N2C(C(=O)O)=C(Cl)CS[C@H]12)c1ccccc1 [Cefaclor],,,,Log(1/MIC) [2]: −.90; MIC [3]: 8
CCN1CCN(C(=O)N[C@@H](C(=O)N[C@@H]2C(=O)N3C(C(=O)O)=C(CSc4nnnn4C)CS[C@H]23)c2ccc(O)cc2)C(=O)C1=O [Cefaperazone],,,,Log(1/MIC) [2]: −1.20; MIC [3]: 16
C=CC1=C(C(=O)O)N2C(=O)[C@@H](NC(=O)/C(=N\OCC(=O)O)c3csc(N)n3)[C@H]2SC1 [Cefixime],,,,Log(1/MIC) [2]: −.90
CO[C@@]1(NC(=O)C2SC(=C(C(N)=O)C(=O)O)S2)C(=O)N2C(C(=O)O)=C(CSc3nnnn3C)CS[C@@H]21 (stereo partly shown) [Cefotetan],,,,Log(1/MIC) [2]: −1.20
COCC1=C(C(=O)O)N2C(=O)[C@@H](NC(=O)/C(=N\OC)c3csc(N)n3)[C@H]2SC1 [Cefpodoxime],,,,Log(1/MIC) [2]: −.30
CCC1=C(c2ccc(O)cc2)[C@H](C)c2cc(O)ccc21 [Indenestrol A (R)],1.08,,,
CCC1=C(c2ccc(O)cc2)[C@@H](C)c2cc(O)ccc21 [Indenestrol A (S)],2.39,,,
CCC(=O)[C@@]1(C)CC[C@H]2[C@@H]3CCC4=CC(=O)CCC4=C3CC[C@@]21C [R 5020],−1.81,,,
O=C(c1ccc(OCCN2CCCCC2)cc1)c1c(-c2ccc(O)cc2)sc2cc(O)ccc12 [Raloxifene],1.34,,,
C[C@H]1CCCC(=O)CCC/C=C/c2cc(O)cc(O)c2C(=O)O1 [Zearalenone],0.91,,,
Clc1c(Cl)c(Cl)c2c(c1Cl)Oc1c(Cl)c(Cl)c(Cl)c(Cl)c1O2 [octaCl-dibenzodioxin],,−6.00,−6.00,
